Where a name gives a salt, the structure may show the parent alone. Read-outs that look alike come from different tables or passages of the source.
Key:
[1] = dog, in vivo
[2] = Oral bioavailability in animals; assay type: in vivo; settings: crystalline free base form as a suspension in water or oil
[3] = pH 1.8
[4] = Text: (§1) In general, conversion of salts to the unionized form or vice versa can be explained on the basis of pH-solubility theory. […] At pH<pHmax the equilibrium solid converts to the corresponding salt form. The term "equilibrium solid phase" refers to the undissolved or excess solid in a suspension of the compound in water after sufficient equilibration time. When a salt of a weak base is equilibrated in water in an amount exceeding its solubility limit (i.e., a suspension of the salt in water), the resulting pH of the suspension may fall on either side of the pHmax depending on the strength of the acid among other factors. When the resulting pH is greater than the pHmax, the suspended solid converts to the free base.
[5] = Crystal form characterisation (hygroscopicity); assay type: physicochemical; settings: crystals obtained from isopropanol
Text: They are now referred to as Type-II crystals. The Type-I crystals appear to be an anhydrous/desolvated crystalline material while the Type-II crystals are a hydrated, hygroscopic crystalline form.

[6] = Aqueous solubility at 24±3° C.; settings: water
Text: For development of pharmaceutical formulations, particularly oral dosage forms, the active ingredient must have sufficient oral bioavailability.

[7] = Equilibration of excess salt in water: suspension pH and identity of undissolved solid phase; assay type: physicochemical; settings: for pH of the suspension after equilibration / identity of undissolved solid phase after equilibration in water: excess salt in water; for pH of the suspension after equilibration: at least 24 hours (24±3° C. for methane sulfonate and hydrochloride); for identity of undissolved solid phase after equilibration in water: thermal and/or elemental analysis
Text: as §1
The undissolved solids from these suspensions were isolated, air-dried, and characterized.

in vivo = settings: dog, po
[8] = 40° C./75% RH; for changes in thermal behavior: as little as two weeks
Procedure: The term physical stability indicates the ability of the salt form to retain its crystal structure (including solvents of crystallization, if any) under storage/stress conditions. Significant changes in the physical nature of the salt form as indicated by thermal methods such as differential scanning calorimetry are undesirable. […] The solid line represents the unstressed material. The dotted line represents the material stressed at 40° C./75% RH for 9 months. […] The solid line represents the unstressed material. The dotted line represents the material stressed at 40° C./75% RH for two weeks. […] The solid line represents the unstressed material. […] The solid line represents the unstressed material. The dotted line represents the material stressed at 40° C./75% RH for two weeks.

SMILES | solubility in water [3] | pH of the suspension after equilibration [7] | identity of undissolved solid phase after equilibration in water [7] | changes in thermal behavior [8] | further results
COC(=O)N[C@H](C(=O)N[C@@H](Cc1ccccc1)[C@@H](O)CN(Cc1ccc(-c2ccccn2)cc1)NC(=O)[C@@H](NC(=O)OC)C(C)(C)C)C(C)(C)C [Compound I, [3S-(3R*, 8'R*, 9'R*, 12R*)]-3,12-bis(1,1-dimethylethyl)-8-hydroxy-4,11-dioxo-9-(phenylmethyl)-6-[[4-(2-pyridinyl)phenylmethyl]-2,5,6,10,13-pentaazatetradecanedioic] acid, dimethyl ester] | less than 1 mg/mL | – | – | – | oral bioavailability [1]: minimal oral bioavailability; oral bioavailability [2]: poor oral bioavailability; pHmax (pH at which the compound exhibits the highest solubility) [4]: approximately 1.2
COC(=O)N[C@H](C(=O)N[C@@H](Cc1ccccc1)[C@@H](O)CN(Cc1ccc(-c2ccccn2)cc1)NC(=O)[C@@H](NC(=O)OC)C(C)(C)C)C(C)(C)C [Type-II crystals] | – | – | – | – | hygroscopicity [5]: hygroscopic
COC(=O)N[C@H](C(=O)N[C@@H](Cc1ccccc1)[C@@H](O)CN(Cc1ccc(-c2ccccn2)cc1)NC(=O)[C@@H](NC(=O)OC)C(C)(C)C)C(C)(C)C [benzenesulfonate] | – | – | – | – | solubility [6]: 1000 to 3000 µg/mL
COC(=O)N[C@H](C(=O)N[C@@H](Cc1ccccc1)[C@@H](O)CN(Cc1ccc(-c2ccccn2)cc1)NC(=O)[C@@H](NC(=O)OC)C(C)(C)C)C(C)(C)C [bisulfate salt] | 4000 to 5000 µg/mL | 1.9±0.2 | hydrated form of 2:1 salt of the free base form and sulfuric acid | – | solid state transformation when suspended in water ([7]; suspension in water): prevents the conversion to the free base; bioavailability (in vivo): ~20%; changes in thermal behavior (differential scanning calorimetry) ([8]; 9 months, vs unstressed sample (2-8° C. closed container)): no significant changes in the thermal behavior
COC(=O)N[C@H](C(=O)N[C@@H](Cc1ccccc1)[C@@H](O)CN(Cc1ccc(-c2ccccn2)cc1)NC(=O)[C@@H](NC(=O)OC)C(C)(C)C)C(C)(C)C [hydrochloride] | – | 2.1±0.1 | identified as the free base | significant changes in their thermal behavior | –
COC(=O)N[C@H](C(=O)N[C@@H](Cc1ccccc1)[C@@H](O)CN(Cc1ccc(-c2ccccn2)cc1)NC(=O)[C@@H](NC(=O)OC)C(C)(C)C)C(C)(C)C [methanesulfonate] | – | 2.1±0.1 | identified as the free base | significant changes in their thermal behavior | –

Reference: patent US6087383A (Bristol-Myers Squibb Company, priority 1998, dated 2000)
